Assay results taken from patent US11578056B2, “Solid forms comprising (S)-2-(2,6-dioxopiperidin-3-yl)-4-((2-fluoro-4-((3-morpholinoazetidin-1-yl)methyl)benzyl)amino)isoindoline-1,3-dione and salts thereof, and compositions comprising and methods of using the same” (Celgene Corporation, priority 2019, dated 2023).

What was measured:
Assay in all cases: Hematological cell line viability/apoptosis flow cytometry assay
Type in all cases: cell-based
Karpas-231 cell line = conditions: Karpas-231 (ALL), 120 h
Method: Cell Proliferation and Viability Assay Using Hematological Cell Lines: The following exemplary anti-proliferative assay uses exemplary hematological cell lines in the following. The in vitro growth inhibitory activity of Compound 1 described herein was evaluated using a 384-well flow cytometry assay.
The final concentration of DMSO was 0.1% (v/v). Following the addition of Compound 1 or DMSO and incubation for 120 hours, cell number and cell death were analyzed by flow cytometry (Attune®, Thermo Fisher) using Annexin V and the live-cell impermeant DNA dye, DRAQ7. Phosphatidylserine translocates from the inner layer to the outer layer of the cell membrane early in apoptosis and Annexin V binds to the exposed phosphatidylserine found on the surface of an apoptotic cell. The vital dye DRAQ7 is excluded by intact live cells and only stains cells that have died as a result of apoptosis or necrosis.
Flow cytometry data analysis was then performed using the Flow Jo_v10 software to determine the number of viable cells (Annexin V and DRAQ7 double negative staining cells) and percentage of apoptotic cells (Annexin V positive cells) for each condition. The live cell count for every concentration was normalized to the DMSO control (considered as 100%) to calculate the percentage of viable cells remaining after treatment and graphed using GraphPad Prism 7.03. The IC50 (50% inhibitory concentration) and Emax (maximum efficacy achieved) values were then calculated by performing nonlinear regression curve fitting using log(inhibitor) vs. normalized response—variable slope analysis on GraphPad Prism 7.03. Area under the curve (AUC) was calculated by performing area under curve analysis on GraphPad Prism 7.03. Similarly, for apoptosis analysis, the percentage of apoptosis combining both “early” (Annexin V positive and DRAQ7 negative) and “late” apoptosis (Annexin V and DRAQ7 positive) cell gates relative to DMSO was graphed using GraphPad Prism 7.03. The AUC, EC50 (concentration of compound that produces half-maximal apoptosis response) and Ymax (maximal percentage of apoptosis achieved) values from apoptosis curves were calculated by performing area under curve analysis and nonlinear regression curve fitting using log(agonist) vs. normalized response—Variable slope analysis on GraphPad Prism 7.03.
Dose-response proliferation curves for the panel of hematological cell lines and non-linear curve-fit regression were used to determine IC50, AUC, and Emax for % viable cells (Emax for viability varies between 100 at low doses and 0 at high doses, which corresponds to inhibition of all viable cells), and dose-response apoptosis curves were used to determine the EC50, AUC, and Ymax for % apoptosis (Ymax for apoptosis varies from 0 at low doses and 100 at higher doses which corresponds to death of all cells). […] Viability and apoptosis for all cell lines was determined by Annexin V/[…] flow cytometry.

Mec1 cell line = conditions: Mec1 (CLL), 120 h
How it was run: (§1)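 Cells were treated with compound at 0.00015 to 10 μM (0.1% DMSO) for 120 hours, then stained with Annexin V and DRAQ7 for flow cytometry. Live (double-negative) counts were normalized to DMSO to fit IC50, Emax and AUC; total early plus late apoptosis gave EC50, Ymax and AUC.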

RC-K8 cell line = conditions: RC-K8 (DLBCL ABC); 120 h
How it was run: as §1

HNT-34 cell line = conditions: HNT-34 (AML), 120 h
How it was run: as §1

WSU-DLCL2 cell line = conditions: WSU-DLCL2 (DLBCL GCB); 120 h
How it was run: as §1

JJN-3 cell line = conditions: JJN-3 (MM, PCL), 120 h
How it was run: as §1

PGA1 cell line = conditions: PGA1 (CLL), 120 h
How it was run: as §1

NU-DHL-1 cell line = conditions: NU-DHL-1 (DLBCL GCB); 120 h
How it was run: as §1

HG3 cell line = conditions: HG3 (CLL), 120 h
How it was run: as §1

HuT-102 cell line = conditions: HuT-102 (TCL), 120 h
How it was run: as §1

[1] = Homo sapiens, read-out: % Viable Cells IC50

O=C1CC[C@H](N2C(=O)c3cccc(NCc4ccc(CN5CC(N6CCOCC6)C5)cc4F)c3C2=O)C(=O)N1 [Compound 1, (S)-2-(2,6-dioxopiperidin-3-yl)-4-((2-fluoro-4-((3-morpholinoazetidin-1-yl)methyl)benzyl)amino)isoindoline-1,3-dione]
% Viable Cells AUC (Karpas-231 cell line): 449.4 | % Viable Cells Emax (Karpas-231 cell line): 0% | Apoptosis AUC (Karpas-231 cell line): 5.720 | Apoptosis Ymax (Karpas-231 cell line): 5.00% | EC50 (Karpas-231 cell line): 896000 nM | IC50 (Karpas-231 cell line; read-out: % Viable Cells IC50): 484 nM | EC50 (Mec1 cell line; Homo sapiens): 210 nM | IC50 (Mec1 cell line; [1]): > 10000 nM | % Viable Cells AUC (Mec1 cell line): 866.5 | % Viable Cells Emax (Mec1 cell line): 83.45% | Apoptosis AUC (Mec1 cell line): 302.4 | Apoptosis Ymax (Mec1 cell line): 36.61% | % Viable Cells AUC (RC-K8 cell line): 115.7 | % Viable Cells Emax (RC-K8 cell line): 10.06% | Apoptosis AUC (RC-K8 cell line): 349.2 | Apoptosis Ymax (RC-K8 cell line): 26.31% | % Viable Cells AUC (HNT-34 cell line): 353 | % Viable Cells Emax (HNT-34 cell line): 20.47% | Apoptosis AUC (HNT-34 cell line): 130.1 | Apoptosis Ymax (HNT-34 cell line): 44.33% | EC50 (HNT-34 cell line): 876 nM | IC50 (HNT-34 cell line; read-out: % Viable Cells IC50): 26 nM | % Viable Cells AUC (WSU-DLCL2 cell line): 36.7 | % Viable Cells Emax (WSU-DLCL2 cell line): 1.387% | Apoptosis AUC (WSU-DLCL2 cell line): 858.9 | Apoptosis Ymax (WSU-DLCL2 cell line): 92.1% | IC50 (JJN-3 cell line; [1]): 0.4 nM | % Viable Cells AUC (JJN-3 cell line): 278.2 | % Viable Cells Emax (JJN-3 cell line): 21.6% | Apoptosis AUC (JJN-3 cell line): 57.97 | Apoptosis Ymax (JJN-3 cell line): 26% | % Viable Cells AUC (PGA1 cell line): 736.7 | % Viable Cells Emax (PGA1 cell line): 69.21% | Apoptosis AUC (PGA1 cell line): 48.94 | Apoptosis Ymax (PGA1 cell line): 5.075% | EC50 (PGA1 cell line): 122 nM | IC50 (PGA1 cell line; read-out: % Viable Cells IC50): > 10000 nM | % Viable Cells AUC (NU-DHL-1 cell line): 12.37 | % Viable Cells Emax (NU-DHL-1 cell line): 0.4919% | Apoptosis AUC (NU-DHL-1 cell line): 981.8 | Apoptosis Ymax (NU-DHL-1 cell line): 99.17% | % Viable Cells AUC (HG3 cell line): 676.2 | % Viable Cells Emax (HG3 cell line): 59.58% | Apoptosis AUC (HG3 cell line): 131.5 | Apoptosis Ymax (HG3 cell line): 14.28% | EC50 (HG3 cell line; HG-3): 111 nM | IC50 (HG3 cell line; HG-3, read-out: % Viable Cells IC50): > 10000 nM | % Viable Cells AUC (HuT-102 cell line): 395.4 | % Viable Cells Emax (HuT-102 cell line): 36.34% | Apoptosis AUC (HuT-102 cell line): 42.75 | Apoptosis Ymax (HuT-102 cell line): 18.50% | EC50 (HuT-102 cell line): 23400 nM | IC50 (HuT-102 cell line; read-out: % Viable Cells IC50): 6.5 nM
